In US20120141390A1, “Natural Preservatives and Antimicrobial Agents” (priority 2007, published 2012):

Columns and labels:
Assay in all cases: Microplate antibacterial assay (optical density at 540 nm)
Assay type in all cases: cell-based
[1] = tested on: Staphylococcus aureus strain 6571; conditions: 37° C., 22 h; for MIC100: lowest concentration giving 100% inhibition
Protocol: (§1) Bacterial strains and growth conditions: Test organisms used in the assay were Staphylococcus aureus strain 6571 (NCTC—National Collection of Type Cultures, Health Protection Agency Centre for Infection, London, UK), Streptococcus mutans ACM 969 and Proteus vulgaris ACM 4730, were supplied by the Australian Collection of Microorganisms (ACM), University of Queensland. The test organisms were grown for 24 h in Tryptone Soya Yeast Extract Broth (TSYEB) (Oxoid CM 129B, Basingstoke, UK), 30 g/L; yeast extract (Oxoid CM19), 6 g/L. The inoculum was quantified by measuring the optical density (absorbance) at 540 nm and adjusted to 0.5 absorbance with TSYEB.
(§2) Preparation and dilution of bacterial strains: An inoculum was prepared by serially diluting (1:1) the overnight culture of the test organisms in TSYEB broth 22 times. The dilutions from 11-22 were used on the 96 well microlitre plate. After the dilutions were made the lowest dilution was plated on Plate Count Agar (Oxoid CM0463) for all the test organisms to confirm the bacterial count.
(§3) Preparation of Polyphenol Powder from Molasses: the Polyphenol Powder from Molasses (0.1 g) was dissolved in 10 ml of TSYEB. This solution was diluted in TSYEB starting at a concentration of 1% (w/v) and diluted to 0.0005% (w/v).
(§4) Preparation of Antibiotic Solutions: the Antibiotics Penicillin G and Oxytetracyclin hydrochloride from Sigma-Aldrich (St. Louis, Mo.) were used in this study. 0.01 g each of Penicillin G and Oxytetracyclin were dissolved in 20 ml of TSYEB.
(§5) The antibiotic solutions of Penicillin G and Oxytetracyclin were diluted in TSYEB (1:1) starting at a concentration of 0.05% (w/v) and diluted to 2.44×10^−5% (w/v).
(§6) Microplate assay procedure: Flat bottom 96 well sterile microtiter plates with lid to prevent cross contamination (Sarstedt, Nümbrecht, Germany) were used for the study. Each 96 well microtiter plate supported one row of wells containing the medium alone (sterility and negative control). Three rows from the first row of wells contained 1:1 dilutions of test organisms (bacterial controls equivalent to 10^5 cfu/ml in the left most well to 10^2 cfu/ml in the right most well) and the polyphenol solution from molasses highest to the lowest concentration (1% to 0.0005 w/v). Each of the combinations of polyphenol solution and bacterial cells were done in triplicate measurements. The next three rows of wells contained the same number of bacterial dilutions but the polyphenol solution was from the lowest to the highest concentration (0.0005% to 1% w/v). Each of the combinations of polyphenol solution and bacterial cells were done in triplicate measurements. The remaining row contained the same number of bacterial dilutions with growth media and polyphenol solution and was called the positive control. Replicates (n=6) of the positive control with no polyphenol solution was run on a separate plate for test organisms. Each 300 μl well contained 50 μl of inoculum, 150 μL of polyphenol solution. Each negative or sterility control well contained 200 μl of TSYEB broth. Each positive control well contained 50 μl of inoculum, 150 μl of TSYEB broth.
(§7) Penicillin G and Oxytetracyclin hydrochloride were used as reference standards to determine the sensitivity of test organisms and to compare the antimicrobial activity of the polyphenol solution with that of the antibiotics.
(§8) Optical density (OD) was determined in a spectrophotometer Sunrise-Basic Tecan (Grödig, Austria) at 540 nm. OD was determined prior to incubation and represents the spectrophotometric reading at time zero (T0). Plates were placed in an incubator at 37° C. and incubated for 22 h. Streptococcus mutans was incubated at 37° C. for 22 and 44 h. The solutions in the plates were mixed using a multichannel pipette to prevent clumping prior to reading the OD in the spectrophotometer after 22 h (T22).
(§9) Analysis of results: The calculations for Percent Inhibition were based on the study by Casey et al. 2004; Patton et al. 2006. […]

[2] = tested on: Streptococcus mutans ACM 969; conditions: lowest concentration giving 100% inhibition, 37° C., growth extended to 44 h
Protocol: as §1, §2, §3, §4, §5, §6, §7, §8, §9

[3] = tested on: Proteus vulgaris ACM 4730; conditions: 37° C., 22 h; for MIC0: highest concentration with no inhibition of growth; for MIC100: lowest concentration giving 100% inhibition
Protocol: as §1, §2, §3, §4, §5, §6, §7, §8, §9

[4] = listed as oxytetracyclin, hydrochloride

MIC100 ([1]; hydrochloride) | MIC100 [1, 4] | MIC100 ([2]; hydrochloride) | MIC100 [2, 4] | MIC0 [3] | MIC100 [3] | MIC0 ([1]; highest concentration with no inhibition of growth) | MIC100 [1] | MIC100 [2] | Structure (SMILES)
<2.44 × 10^−5 % w/v | 2.44×10^−5 % w/v | <2.44 × 10^−5 % w/v | 2.44×10^−5 % w/v | 2.44 × 10^−5 % w/v | 7.88 × 10^−4 % w/v |  |  |  | CN(C)[C@@H]1C(O)=C(C(N)=O)C(=O)[C@@]2(O)C(O)=C3C(=O)c4c(O)cccc4[C@@](C)(O)[C@H]3[C@H](O)[C@@H]12.Cl [Oxytetracylin, Oxytetracyclin hydrochloride]
 |  |  |  | 4.88 × 10^−5 % w/v | 7.81 × 10^−4 % w/v | <2.44 × 10^−5 % w/v | 9.77 × 10^−5 % w/v | <2.44 × 10^−5 % w/v | CC1(C)S[C@@H]2[C@H](NC(=O)Cc3ccccc3)C(=O)N2[C@H]1C(=O)O [Penicillin G]
